Laboratory results reported in PubChem BioAssay (NCI).
Where “and” joins values, the source holds several entries; their conditions need not be identical. Identical values can stand only once.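 Following 48 hours of exposure in 96-well plates, responses at five concentrations were used to interpolate endpoints linearly. GI50: concentration for 50% inhibition of growth. TGI: concentration producing complete growth inhibition.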

Legend:
Test in all cases: NCI anticancer screen, dose series, 48 h
[1] = test system: M14 melanoma
[2] = test system: HS 578T breast
[3] = test system: BT-549 breast
[4] = test system: NCI-H460 lung
[5] = test system: SK-OV-3 ovarian
[6] = test system: HT29 colon
[7] = test system: LOX IMVI melanoma
[8] = test system: UACC-62 melanoma
[9] = test system: RXF 393 renal
[10] = test system: UACC-257 melanoma

With `C/C(=N\NC(=S)N1CCN(c2ccccn2)CC1)c1ncccn1` the GI50 [1] was 0.0938 µM, the TGI [1] was 6.06 µM and 2.61 µM and the GI50 [2] was 3.01 µM. For the same compound, the TGI [2] was 31.2 µM, the GI50 [3] was 0.0936 µM and the TGI [3] was 18.8 µM. The GI50 [4] was 0.0538 µM, the TGI [4] was 5.88 µM and 14 µM and the GI50 [5] was 0.0884 µM. The TGI [5] was 4.47 µM and 13 µM, the GI50 [6] was < 0.0263 µM and the TGI [6] was 7.55 µM and 14.9 µM. The GI50 [7] was < 0.0183 µM, the TGI [7] was 9.45 µM and 2.53 µM and the GI50 [8] was 0.057 µM. For the same compound, the TGI [8] was 0.58 µM and 4.19 µM, the GI50 [9] was 1.05 µM and the TGI [9] was 4.51 µM and 15.5 µM. The GI50 [10] was 0.0339 µM and the TGI [10] was 1.42 µM and 4.27 µM.
Compound `O=C1C(Sc2ccc3ccccc3c2)=C(Sc2ccc3ccccc3c2)C(=O)c2ccccc21` has a TGI [1] of 23.7 µM, a TGI [2] of 62.3 µM and a TGI [3] of 83.2 µM. The TGI [4] was > 100 µM, the TGI [5] was 68.2 µM and the TGI [6] was 29 µM. It also gave a TGI [7] of 47.8 µM, a TGI [8] of 14.2 µM and a TGI [9] of 32.6 µM. The TGI [10] was 16.3 µM.
With `COc1cc(C(=O)/C=C/c2c(C(F)(F)F)nc3ccccn23)cc(OC)c1OC` the GI50 [1] was 1.82 µM, the TGI [1] was 4.06 µM and the GI50 [2] was 3.27 µM. For the same compound, the TGI [2] was 54.6 µM, the GI50 [3] was 1.64 µM and the TGI [3] was 3.95 µM. The GI50 [4] was 2.01 µM, the TGI [4] was 13.4 µM and the GI50 [5] was 4.04 µM. For the same compound, the TGI [5] was 19 µM, the GI50 [6] was 1.93 µM and the TGI [6] was 4.45 µM. It also gave a GI50 [7] of 1.66 µM, a TGI [7] of 3.77 µM and a GI50 [8] of 1.66 µM. It also gave a TGI [8] of 3.32 µM, a GI50 [9] of 1.87 µM and a TGI [9] of 3.91 µM. For the same compound, the GI50 [10] was 2.05 µM and the TGI [10] was 5.08 µM.
`CN(C)CCCn1c2c(c3cc4c(cc3c1=O)OCO4)C(=O)c1ccccc1-2` showed a GI50 [1] of 0.0984 µM, a TGI [1] of 1.38 µM and a GI50 [2] of 11.5 µM. The TGI [2] was 43.4 µM, the GI50 [3] was 5.52 µM and the TGI [3] was 29 µM. For the same compound, the GI50 [4] was 8.82 µM, the TGI [4] was > 32.8 µM and the GI50 [5] was 4.99 µM. The TGI [5] was > 39.3 µM, the GI50 [6] was 0.0472 µM and the TGI [6] was > 100 µM. For the same compound, the GI50 [7] was 0.0635 µM, the TGI [7] was 0.557 µM and the GI50 [8] was 1.05 µM. The TGI [8] was 9.57 µM, the GI50 [9] was 0.852 µM and the TGI [9] was 8.93 µM. It also gave a GI50 [10] of 1.54 µM and a TGI [10] of 14.9 µM.
Compound `COc1ccc(-c2c3c(N)c4c(nc3nc3c2c(C)nn3-c2ccccc2)CCCC4)cc1` has a GI50 [1] of 3.74 µM, a TGI [1] of 13 µM and a GI50 [2] of 12.5 µM. For the same compound, the TGI [2] was 37.2 µM, the GI50 [3] was 17.2 µM and the TGI [3] was 33.8 µM. For the same compound, the GI50 [4] was 3.28 µM, the TGI [4] was 11.3 µM and the GI50 [5] was 12.1 µM. The TGI [5] was 24.6 µM, the GI50 [6] was 2.68 µM and the TGI [6] was 8.8 µM. The GI50 [7] was 12 µM, the TGI [7] was 27 µM and the GI50 [8] was 13.7 µM. For the same compound, the TGI [8] was 27.9 µM, the GI50 [9] was 8.48 µM and the TGI [9] was 26.7 µM. The GI50 [10] was 2.43 µM and the TGI [10] was 9.38 µM.
`COc1ccc(-c2[nH]c3ccccc3c2/C=C(\C#N)S(=O)(=O)c2ccccc2)cc1` was tested, and the GI50 [1] was 0.383 µM, the TGI [1] was 14.4 µM and the GI50 [2] was 0.671 µM. For the same compound, the TGI [2] was > 46 µM, the GI50 [3] was 1.63 µM and the TGI [3] was > 76 µM. The GI50 [4] was 0.404 µM, the TGI [4] was > 100 µM and the GI50 [5] was 0.516 µM. The TGI [5] was > 25.3 µM, the GI50 [6] was 0.309 µM and the GI50 [7] was 1.23 µM. The TGI [7] was > 100 µM, the GI50 [8] was 0.597 µM and the TGI [8] was 16.3 µM. For the same compound, the GI50 [9] was 1.02 µM, the TGI [9] was > 100 µM and the GI50 [10] was 10.7 µM. The TGI [10] was > 100 µM.
`Nc1nc(C(=O)O)c(N=Nc2ccccc2)c(=O)[nH]1` was tested, and the TGI [1] was > 100 µM, the TGI [2] was > 100 µM and the TGI [3] was > 100 µM. The TGI [4] was > 100 µM, the TGI [5] was > 100 µM and the TGI [6] was > 100 µM. The TGI [7] was > 100 µM, the TGI [8] was > 100 µM and the TGI [9] was > 100 µM. For the same compound, the TGI [10] was > 100 µM.
With `Cc1cc(O)c2c3c(ccc2c1)C(=O)c1c(O)cccc1C3=O` the TGI [1] was > 26.2 µM, the TGI [2] was > 100 µM and the TGI [3] was > 100 µM. The TGI [4] was > 27 µM, the TGI [5] was > 100 µM and the TGI [6] was > 44.9 µM. For the same compound, the TGI [7] was > 100 µM, the TGI [8] was 13.6 µM and the TGI [9] was > 100 µM. For the same compound, the TGI [10] was > 100 µM.
With `[Cl][Cu][Cl]` the GI50 [1] was > 10 µM, the TGI [1] was > 10 µM and the GI50 [2] was > 10 µM. The TGI [2] was > 10 µM, the GI50 [3] was > 10 µM and the TGI [3] was > 10 µM. For the same compound, the GI50 [4] was > 10 µM, the TGI [4] was > 10 µM and the GI50 [5] was > 10 µM. For the same compound, the TGI [5] was > 10 µM, the GI50 [6] was > 10 µM and the TGI [6] was > 10 µM. The GI50 [7] was > 10 µM, the TGI [7] was > 10 µM and the GI50 [8] was > 10 µM. The TGI [8] was > 10 µM, the GI50 [9] was > 10 µM and the TGI [9] was > 10 µM. For the same compound, the GI50 [10] was > 10 µM and the TGI [10] was > 10 µM.
`O=C1C(Nc2cccc(O)c2)=C(Sc2ccccc2)C(=O)N1Cc1ccccc1` showed a GI50 [1] of 5.35 µM, a TGI [1] of 19.5 µM and a GI50 [2] of 11.5 µM. It also gave a TGI [2] of 43.8 µM, a GI50 [3] of 11.2 µM and a TGI [3] of 43.5 µM. It also gave a GI50 [4] of 11.3 µM, a TGI [4] of 29 µM and a GI50 [5] of 16.4 µM. The TGI [5] was 35.3 µM, the GI50 [6] was 14.3 µM and the TGI [6] was 29.8 µM. The GI50 [7] was 13 µM, the TGI [7] was 39.4 µM and the GI50 [8] was 5.3 µM. It also gave a TGI [8] of 18.9 µM, a GI50 [9] of 5.07 µM and a TGI [9] of 25.6 µM.
`CC(=O)N(O)c1ccc(/C=C/c2ccccc2)cc1` was tested, and the GI50 [1] was 3.35 µM, the TGI [1] was > 100 µM and the GI50 [2] was 3.62 µM. The TGI [2] was 68.8 µM, the GI50 [3] was 2.59 µM and the TGI [3] was 20.5 µM. The GI50 [4] was 0.247 µM, the TGI [4] was 8.39 µM and the GI50 [5] was 2.04 µM. It also gave a TGI [5] of 8.77 µM, a GI50 [6] of 3.39 µM and a TGI [6] of 53.2 µM. The GI50 [7] was 1.48 µM, the TGI [7] was 14.6 µM and the GI50 [8] was 1.46 µM. For the same compound, the TGI [8] was 4.69 µM, the GI50 [9] was 0.539 µM and the TGI [9] was 1.9 µM. The GI50 [10] was 1.23 µM and the TGI [10] was 5.17 µM.
In the case of `c1ccc(CN2COc3c(ccc4c5c(ccc34)CN(Cc3ccccc3)CO5)C2)cc1`, the TGI [1] is reported as > 100 µM, the TGI [2] is reported as > 100 µM and the TGI [3] is reported as > 100 µM. The TGI [4] was > 100 µM, the TGI [5] was > 100 µM and the TGI [6] was > 100 µM. For the same compound, the TGI [7] was > 100 µM, the TGI [8] was > 100 µM and the TGI [9] was > 100 µM. For the same compound, the TGI [10] was > 100 µM.
Compound `COc1c(CC=C(C)C)c(O)c(C(CC(C)C)c2c(O)c(CC=C(C)C)c(O)c(C(C)=O)c2O)c(O)c1C(C)=O` (configuration not stated) has a TGI [1] of 5.72 µM, a TGI [2] of 4.63 µM and a TGI [3] of 14.9 µM. The TGI [4] was 10.2 µM, the TGI [5] was 11.1 µM and the TGI [6] was 8.63 µM. It also gave a TGI [7] of 3.59 µM, a TGI [8] of 2.22 µM and a TGI [9] of 11.1 µM. It also gave a TGI [10] of 5.11 µM.
Compound `COCCOCCOCCOCCOC(=O)OC[n+]1ccc(NC(=NCCCCCCOc2ccc(Cl)cc2)NC#N)cc1` has a GI50 [1] of 0.0409 µM, a TGI [1] of 14.7 µM and a GI50 [2] of 1.11 µM. It also gave a TGI [2] of 43.6 µM, a GI50 [3] of 5.71 µM and a TGI [3] of 20.5 µM. It also gave a GI50 [4] of 0.124 µM, a TGI [4] of 19.2 µM and a GI50 [5] of 11.3 µM. It also gave a TGI [5] of 23.6 µM, a GI50 [6] of 0.0369 µM and a TGI [6] of 18.2 µM. For the same compound, the GI50 [7] was 2.57 µM, the TGI [7] was 20.6 µM and the GI50 [8] was 9.97 µM. It also gave a TGI [8] of 22.2 µM, a GI50 [9] of 7.44 µM and a TGI [9] of 22.3 µM. It also gave a GI50 [10] of 7.79 µM and a TGI [10] of 21.8 µM.
